Counter-ions that a name gives are not always drawn.
Assays:
[1] = biological target: T1, CAT-1 (carnitine acyltransferase 1) (Rattus norvegicus, UniProt Q63704); assay: Secondary Screen--Inhibition of CAT-1 in intact cardiac myocytes (hypoxia-induced increase in long-chain acylcarnitines); type: cell-based; design: inhibition: dose or concentration left out as unconfirmed; conditions: isolated rat cardiac myocytes; for IC50: 50% inhibition of hypoxia-induced increase in long-chain acylcarnitines; for inhibition: hypoxia
T1 construct: This preparation is used as the isolated mitochondrial preparation; from tissue; host or cells: rat heart (atria removed), isolated mitochondria
T1 sequence (Q63704 1-772): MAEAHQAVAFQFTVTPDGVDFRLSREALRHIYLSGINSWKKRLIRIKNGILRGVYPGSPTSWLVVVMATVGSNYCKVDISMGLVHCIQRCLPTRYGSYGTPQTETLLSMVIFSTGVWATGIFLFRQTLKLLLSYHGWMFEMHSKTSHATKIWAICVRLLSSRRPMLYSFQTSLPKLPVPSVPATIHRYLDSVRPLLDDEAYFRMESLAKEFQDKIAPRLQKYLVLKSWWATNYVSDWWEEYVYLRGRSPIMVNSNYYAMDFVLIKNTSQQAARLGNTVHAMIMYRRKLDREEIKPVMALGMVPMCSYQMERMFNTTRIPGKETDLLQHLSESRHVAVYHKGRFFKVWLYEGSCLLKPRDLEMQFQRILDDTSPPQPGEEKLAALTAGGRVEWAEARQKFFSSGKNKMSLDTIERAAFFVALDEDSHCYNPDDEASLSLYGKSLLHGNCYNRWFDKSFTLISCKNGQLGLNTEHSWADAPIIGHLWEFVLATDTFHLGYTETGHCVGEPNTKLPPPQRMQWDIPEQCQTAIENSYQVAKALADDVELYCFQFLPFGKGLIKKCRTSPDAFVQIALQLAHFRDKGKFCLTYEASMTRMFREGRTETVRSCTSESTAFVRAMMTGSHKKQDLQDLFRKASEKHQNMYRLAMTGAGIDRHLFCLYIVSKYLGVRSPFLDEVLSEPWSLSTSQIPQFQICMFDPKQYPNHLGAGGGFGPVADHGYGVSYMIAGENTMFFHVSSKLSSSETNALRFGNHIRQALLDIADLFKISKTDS
Method: Secondary Screen--Inhibition of CAT-1 in intact Cardiac Myocytes
(a) Preparation of Isolated Rat Cardiac Myocytes
Four hearts are excised from anesthetized rats and perfused retrogradly via the Langendorf technique. Each heart receives 100 mL of Krebs (NaCl, 118.4 mM; KCL, 4.6 mM; NaH2 PO4, 1.0 mM; NaHCO3, 20 mM; MgSO4, 2 mM; CaCl2, 50 μM; glucose, 11.0 mM), 100 mL of Ca++ free Krebs and finally 100 mL of 0.5% collagenase (Boehringer Mannhelm, type 1) in Hepes (NaCl, 115 mM; KCl, 5 mM; sucrose, 35 mM; glucose, 10 mM; Hepes, 10 mM; taurine, 4 mM; MgSO4, 2 mM; CaCl2, 50 μM). After these perfusions, the hearts are chopped into pieces, approx. 0.5 cm×0.5 cm and placed in four 125 mL plastic bottles along with 25 mL of collagenase/Hepes situated in a water bath maintained at 35° C. The pieces of cardiac tissue in each bottle are agitated by using a Harvard respirator connected to four glass syringes, which sucks the tissue up and down each tube during each respiratory cycle. After fifteen minutes, the collagenase/Hepes is removed and replaced with fresh collegenase/Hepes and the process repeated. The collegenase/Hepes from the subsequent fifteen minute harvests are centrifuged at 500 g to pellet the cells which are then resuspended in Hepes buffer. After six harvests, all cells are pelleted, resuspended in 2×26.5 mL of Hepes plus BSA (350 mg) and layered on top of 2×percoll gradients (21.15 mL percoll, 2.35 mL NaCl, 6 drops acetic acid). This is centfifuged at 3000 g for eight minutes forming a percoll gradient which results in viable cells being separated from damaged cells. The viable cells are removed, washed with Hepes and finally resuspended in 25 mL of Hepes.
The isolated cardiac myocytes (2 mL; approximately 1×10^6 cells) are separated into six glass pods. Into four of these are placed selected concentrations of the compound to be tested, and the cells are incubated for twenty minutes, after which the pods are centrifuged at 300 g for three minutes. 300 μL of normoxic Hepes is placed in one of the pods not containing compound and then all pods are placed in a hypoxic chamber (N2 atmosphere). Oxygen is fed via small bore steel tubes to the pod containing the normoxic buffer, while the other five pods receive pre-purified argon (99.998% pure). After two minutes, Hepes (pre-gassed with argon for at least twelve hours) is fed into the five hypoxic pods. This hypoxic environment (pO2 <10 mm Hg) is maintained for twenty minutes, after which the cells and pods are frozen by contact with a metal block precooled in liquid N2. The pods are then removed from the chamber and stored at -70° C. The carnitine assay is performed, as described below in (c), to determine the amount of long-chain acylcarnitine in the cells from the normoxic, hypoxic and hypoxic plus compound samples. […] Thus the IC50 in this screen is the concentration of test compound which produces a 50% inhibition of the hypoxia-induced increase in long-chain acylcarnitines.
(c) Long-chain Acylcarnitine Assay.
The frozen cell samples are thawed, mixed and homogenized with 40 μL of 70% PCA. The homogenate is transferred to eppendorf tubes while the homogenization tube and the glass pod is rinsed with 500 μL of 7% PCA, with the rinse being added to the eppendorf tube. This is then centrifuged at 1000 g for two minutes to pellet the precipitate (containing the long-chain acylcarnitine) and the supernatant is discarded. The pellet is washed twice with 500 μL of 7% PCA, the supernatants being discarded. The pellet is then hydrolyzed (to separate the acyl unit from carnitine to yield free carnitine) by the addition of 200 μL of aleionized H2 O and 50 μL of 5N KOH and incubated at 70° C. for ninety minutes.

[2] = biological target: T1, CAT-1 (carnitine acyltransferase 1); assay: Primary Screen--Inhibition of CAT-1 in isolated mitochondria; type: biochemical
Method: Primary Screen--Inhibitors of CAT-1 in 1Mitochondria
(a). Preparation of Mitochondria
The heart is rapidly removed from an anesthetized rat (sodium pentabarbitol) and placed in ice-cold homogenization buffer (sucrose, 250 mM; Tris, 10 mM; EDTA, 1 mM; BSA, 0.01%; pH=7.4). The atria and extraneous tissue are removed and the remainder is chopped with scissors. The pieces are rinsed in homogenization buffer before being homogenized in 10 mL of the same buffer for 5-7 seconds. The homogenate is then diluted with homogenization buffer (40 total volume) and centrifuged at 200 g for 20 minutes. The supernatant is withdrawn and centrifuged at 7000 g for 20 minutes and the resulting pellet is isolated, resuspended in 40 mL of homogenization buffer and centrifuged once more at 7000 g for 20 minutes. The isolated pellet is resuspended in 10 mL of homogenization buffer and stored at 4° C. until use. This preparation is used as the isolated mitochondrial preparation.
(b). Inhibition of CAT-1 assay
Isolated mitochondria (20 μL) are incubated with 60 μL of Tris/sucrose buffer (sucrose, 500 mM; Tris, 20 mM; KCl, 100 mM; EDTA, 2 mM; pH=7.0 plus 83 μM palmitoyl CoA, and BSA, 0.8 mg/mL and 10^-4 to 10^-10 M of the drug to be tested. After 10 minutes at 30° C., the reaction is started by addition of 10 μL of ^3 H-carnitine (final concentration=250 μM). After 5 minutes, the reaction is terminated by the addition of ice cold 70% perchloric acid (PCA). The precipitated solids so formed, containing the insoluble product of the enzyme palmitoyl carnitine, are captured on filter paper. The filter paper is washed with 7% PCA, then dried and placed in scintillation vials with 10 mL of scintillant (Aquasol, New England Nuclear) and counted for radioactivity. The rate of the reaction is assessed by the difference in radioactivity between zero time and five minutes in the absence of test compound. The ability of test compounds at selected concentrations to inhibit CAT-1 is determined by their ability to reduce the formation of the radioactive product. The IC50 of the test compound is the concentration of test compound that reduces the formation of radioactive product by 50%.

[3] = rat heart mitochondria, reduction of palmitoyl carnitine formation by 50%, read-out: Primary Screen IC50

Row | SMILES | IC50 [1] | IC50 [2, 3] | inhibition [1] | IC50 [2]
1 | CO/N=C(/C(=O)O)c1ccc(OCCOc2ccc3ccccc3c2)s1 [Example 306, (Z)-alpha-(methoxyimino)-5-[2-(2-naphthalenyloxy)ethoxy]-2-thiopheneaceticacid (2:1) hydrate] | 7000 nM | 300 nM |  | 
2 | O=C(NO)C(=O)c1ccc(OCCOc2ccc3ccccc3c2)s1 [Example 300, N-hydroxy-5-[2-(2-naphthalenyloxy)ethoxy]-alpha-oxo-2-thiopheneacetamide] | 5000 nM | 2100 nM |  | 
3 | CC(C)c1cccc(-c2ccc(F)cc2)c1OCCOc1ccc(C(=O)C(=O)O)cc1 [Example 234, 4-[2-[4'-fluoro-3-(1-methylethyl)[1,1'-biphenyl]-2-yloxy]ethoxy]-alpha-oxobenzeneacetic acid] |  |  | 90% | 
4 | O=C(O)C(=O)c1ccc(OCCCc2ccc3ccccc3c2)cc1 [Example 94, 4-[[3-(2-naphthalenyl)propyl]oxy]-alpha-oxobenzeneacetic acid] | 12000 nM | 80 nM |  | 
5 | O=C(OCC(O)CO)C(=O)c1ccc(OCCOc2ccc3ccccc3c2)s1 (racemic) [Example 5, rac.-5-[[2-(2-naphthalenyloxy)ethyl]oxy]-alpha-oxo-2-thiopheneacetic acid 2,3-dihydroxypropyl ester] | 250 nM | 40 nM |  | 
6 | O=C(O)C(=O)c1ccc(OCCOc2ccc3ccccc3c2)cc1Cl [Example 187, 2-chloro-4-[2-(2-naphthalenyloxy)ethoxy]-alpha-oxobenzeneacetic acid] | 9000 nM | 300 nM |  | 
7 | O=C(O)C(=O)c1ccc(OCCOc2ccc3ccccc3c2)c(Cl)c1 [Example 185, 3-chloro-4-[2-(2-naphthalenyloxy)ethoxy]-alpha-oxobenzeneacetic acid] | 12000 nM | 80 nM |  | 
8 | O=C(O)C(=O)c1ccc(OCCCc2ccccc2)cc1 [Example 23, 4-[(3-phenylpropyl)oxy]-alpha-oxobenzeneacetic acid] | 37000 nM | 500 nM |  | 
9 | CCCc1c(OCCCOc2ccc(C(=O)C(=O)O)cc2)ccc(C(C)=O)c1O [Example 257, 4-[3-(4-acetyl-3-hydroxy-2-propylphenoxy)propoxy]-alpha-oxobenzeneacetic acid] | 100 nM | 380 nM |  | 
10 | CCC(C)(C)C(=O)OCc1cccc(C)c1OCCOc1ccc([C@H](N)C(=O)O)cc1 [Example 298, (S)-alpha-amino-4-[2-[2-[(2,2-dimethyl-1-oxobutoxy)methyl]-6-methylphenoxy]ethoxy]benzeneacetic acid] | 30000 nM | 2500 nM |  | 
11 | O=C(O)C(=O)c1ccc(OCCCC(=O)c2ccc3ccccc3c2)cc1 [Example 282, 4-[[4-(2-naphthalenyl)-4-oxobutyl]oxy]-alpha-oxobenzeneacetic acid] | 8000 nM | 400 nM |  | 
12 | O=C(O)C(=O)c1ccc(OCCOC23CC4CC(CC(C4)C2)C3)cc1 [Example 103, alpha-oxo-4-[[2-[tricyclo(3.3.1.1-3,7)dec-1-yloxy]ethyl]oxy]benzeneacetic acid] | 40000 nM | 1500 nM |  | 
13 | O=C(O)C(=O)c1ccc(OCCCCCCc2cccc(OCc3ccccc3)c2OCc2ccccc2)cc1 [Example 259, 4-[6-[2,3-bis-(phenylmethoxy)phenyl]hexyloxy]-alpha-oxobenzeneacetic acid] |  | 1200 nM |  | 
14 | O=C(O)C(=O)c1ccc(OCC(=O)N2CCc3ccccc3C2)cc1 [Example 251, 4-[2-oxo-2-(1,2,3,4-tetrahydro-2-isoquinolinyl)ethoxy]-alpha-oxobenzeneacetic acid] |  | 400 nM |  | 
15 | O=C(O)C(=O)c1ccc(OCCOc2ccc3cc4ccccc4cc3c2)cc1 [Example 108, 4-[[2-(2-anthracenyloxy)ethyl]oxy]-alpha-oxobenzeneacetic acid] |  | 200 nM |  | 
16 | Cc1nnc2n1-c1sc(C#CCOc3ccc(C(=O)C(=O)O)cc3)cc1C(c1ccccc1Cl)=NC2 [Example 294, 4-[3-[4-(2-chlorophenyl)-9-methyl-6H-thieno[3,2-f][1,2,4]triazolo[4,3-a][1,4]diazepin-2-yl]-2-propynyloxy]-alpha-oxobenzeneacetic acid] |  |  |  | 300 nM
17 | O=C(O)C(=O)c1ccc(C#CCNC(=O)c2ccc3ccccc3c2)cc1 [Example 146, 4-[3-[[(2-naphthalenyl)carbonyl]amino]-1-propynyl]-alpha-oxobenzeneacetic acid] |  | 5500 nM |  | 
18 | O=C(O)C(=O)c1ccc([S+]([O-])CCOc2ccc3ccccc3c2)cc1 (racemic) [Example 151, rac.-4-[[2-(2-naphthalenyloxy)ethyl]sulfinyl]-alpha-oxobenzeneacetic acid] |  | 5500 nM |  | 
19 | CC(C)c1nc(-c2ccccc2)n(-c2ccc(F)cc2)c1/C=C/COc1ccc(C(=O)C(=O)O)cc1 [Example 243, (E)-4-[3-[1-(4-fluorophenyl)-4-(1-methylethyl)-2-phenyl-1H-imidazol-5-yl]-2-propenyloxy]-alpha-oxobenzeneacetic acid] | 7000 nM |  |  | 
20 | O=C(O)C(=O)c1ccc(OCC(=O)c2ccccc2-c2ccccc2)cc1 [Example 288, 4-[2-[[1,1'-biphenyl]-2-yl]-2-oxoethoxy]-alpha-oxobenzeneacetic acid] |  | 1400 nM |  | 
21 | CCCc1c(OCCCOc2ccc(C(=O)C(=O)O)cc2)ccc(C(C)=O)c1OC [Example 271, 4-[3-[4-acetyl-3-methoxy-2-propylphenoxy)propoxy]-alpha-oxobenzeneacetic acid] |  | 460 nM |  | 

Now from value to molecule, other results behind:

Row | IC50 [1] | IC50 [2, 3] | inhibition [1] | SMILES | IC50 [2]
22 | 900 nM | 240 nM |  | O=C(O)/C(=N/O)c1ccc(OCCOc2ccc3ccccc3c2)s1 [Example 302, (Z)-alpha-(hydroxyimino)-5-[2-(2-naphthalenyloxy)ethoxy]-2-thiopheneaceticacid] | 
23 | 20000 nM | 1800 nM |  | O=C(O)C(=O)c1ccc(C#CCOc2ccc3ccccc3c2)cc1 [Example 142, 4-[3-(2-naphthalenyloxy)-1-propynyl]-alpha-oxobenzeneacetic acid] | 
24 | 75000 nM | 40 nM |  | O=C(OCCOCCOCCO)C(=O)c1ccc(OCCOc2ccc3ccccc3c2)cc1 [Example 105, 4-[[2-(2-naphthalenyloxy)ethyl]oxy]-alpha-oxobenzeneacetic acid 2-[2-(2-hydroxyethoxy)ethoxy]ethyl ester] | 
25 | 1200 nM | 40 nM |  | O=C(OCC(O)CO)C(=O)c1ccc(OCCOc2ccc3ccccc3c2)cc1 (racemic) [Example 104, rac.-4-[[2-(2-naphthalenyloxy)ethyl]oxy]-alpha-oxobenzeneacetic acid 2,3-dihydroxypropyl ester] | 
26 | 800 nM | 30 nM |  | O=C(O)C(=O)c1ccc(OCC(=O)c2cccc3ccccc23)cc1 [Example 284, 4-[2-(1-naphthalenyl)-2-oxoethoxy]-alpha-oxobenzeneacetic acid] | 
27 |  | 60 nM | 33% | O=C(O)C(=O)c1ccc(OCC(=O)N2CCC(c3ccccc3)CC2)cc1 [Example 245, alpha-oxo-4-[2-oxo-2-(4-phenyl-1-piperidinyl)ethoxy]benzeneacetic acid] | 
28 | 7000 nM | 830 nM |  | O=C(O)C(=O)c1c(F)cc(OCCOc2ccc3ccccc3c2)cc1F [Example 201, 2,6-difluoro-4-[2-(2-naphthalenyloxy)ethoxy]-alpha-oxobenzeneacetic acid] | 
29 | 12000 nM |  |  | CC(C)n1c(/C=C/COc2ccc(C(=O)C(=O)O)cc2)c(-c2ccc(F)cc2)c2ccccc21 [Example 241, (E)-4-[3-[3-(4-fluorophenyl)-1-(1-methylethyl)-1H-indole-2-yl]-2-propenyloxy]-alpha-oxobenzeneacetic acid (1:1) morpholine salt] | 
30 |  | 18000 nM |  | O=C(O)C(F)(F)c1ccc(OCCOc2ccccc2)cc1 [Example 11, alpha, alpha-difluoro-4-[[2-(phenoxy)ethyl]oxy]benzeneacetic acid] | 
31 |  | 400 nM |  | O=C(O)C(=O)c1ccc(OCC#Cc2ccccc2)cc1 [Example 35, alpha-oxo-4-[(3-phenyl-2-propynyl)oxy]benzeneacetic acid] | 
32 |  | 230 nM |  | CCCc1c(OCCCOc2ccc(C(=O)C(=O)O)cc2)ccc(C(=O)OC)c1O [Example 268, 4-[3-[3-hydroxy-4-(methoxycarbonyl)-2-propylphenoxy)propoxy]-alpha-oxobenzeneacetic acid] | 
33 |  | 4700 nM |  | Cc1cc(OCCOc2ccc3ccccc3c2)ccc1C(=O)C(=O)O [Example 183, 2-methyl-4-[2-(2-naphthalenyloxy)ethoxy]-alpha-oxobenzeneacetic acid (4:1) hydrate] | 
34 |  | 80 nM |  | O=C(O)C(=O)c1ccc(SCCOc2ccc3ccccc3c2)cc1 [Example 149, 4-[[2-(2-naphthalenyloxy)ethyl]thio]-alpha-oxobenzeneacetic acid] | 

Reference: patent US5344843A, “Cat-1 inhibitors, pharmaceutical compositions and methods of use” (Hoffman-La Roche Inc., priority 1992, dated 1994)
